Assay [1] deals with Clathrin heavy chain 1 (Homo sapiens) (UniProt Q00610). The assay can be described thus: Modulation of clathrin heavy chain 1 in human PC3 cells assessed as effect on transferrin endocytosis at 5 to 25 uM pretreated for 15 mins followed by trasnferrin conjugate addition measured after 15 mins by laser scanning confocal microscopic analysis. In kind it is cell-based.
For assay [2], the system named is PC-3. The assay can be described thus: Antiproliferative activity against human PC3 cells measured after 24 hrs by MTT assay. In kind it is functional, cell-based. Particulars: PC-3, 24 h.
In assay [3] the target is Clathrin heavy chain 1 (Homo sapiens) (UniProt Q00610). Put plainly: Binding affinity to clathrin heavy chain 1 in human MCF7 cells at 20 to 40 uM measured after 2 hrs by DARTS assay. In kind it is cell-based.
Assay [4] shares this target. Put plainly: Binding affinity to clathrin heavy chain 1 in human PC3 cells at 20 to 40 uM measured after 2 hrs by DARTS assay. In kind it is cell-based.
Assay [5] concerns MCF7. Put plainly: Antiproliferative activity against human MCF7 cells measured after 24 hrs by MTT assay. In kind it is functional, cell-based. The conditions noted are these: MCF7, 24 h. (In general: Formazan colour is commonly taken as a measure of viable cells.)
Assay [6] concerns the target Clathrin heavy chain 1 (Homo sapiens) (UniProt Q00610). Put plainly: Inhibition of clathrin heavy chain 1 in human PC3 cells assessed as suppression of transferrin internalization at 30 uM pretreated for 15 mins followed by trasnferrin conjugate addition measured after 15 mins by laser scanning confocal microscopic analysis. In kind it is cell-based.

Activity calls are given as the source filed them. No cut-off for these calls is given here.

We go through two molecules from ChEMBL document CHEMBL4041487, “Drug Affinity Responsive Target Stability (DARTS) Identifies Laurifolioside as a New Clathrin Heavy Chain Modulator” (J Nat Prod, 2016).

Sequence of Clathrin heavy chain 1 (Homo sapiens) (Q00610 whole entry): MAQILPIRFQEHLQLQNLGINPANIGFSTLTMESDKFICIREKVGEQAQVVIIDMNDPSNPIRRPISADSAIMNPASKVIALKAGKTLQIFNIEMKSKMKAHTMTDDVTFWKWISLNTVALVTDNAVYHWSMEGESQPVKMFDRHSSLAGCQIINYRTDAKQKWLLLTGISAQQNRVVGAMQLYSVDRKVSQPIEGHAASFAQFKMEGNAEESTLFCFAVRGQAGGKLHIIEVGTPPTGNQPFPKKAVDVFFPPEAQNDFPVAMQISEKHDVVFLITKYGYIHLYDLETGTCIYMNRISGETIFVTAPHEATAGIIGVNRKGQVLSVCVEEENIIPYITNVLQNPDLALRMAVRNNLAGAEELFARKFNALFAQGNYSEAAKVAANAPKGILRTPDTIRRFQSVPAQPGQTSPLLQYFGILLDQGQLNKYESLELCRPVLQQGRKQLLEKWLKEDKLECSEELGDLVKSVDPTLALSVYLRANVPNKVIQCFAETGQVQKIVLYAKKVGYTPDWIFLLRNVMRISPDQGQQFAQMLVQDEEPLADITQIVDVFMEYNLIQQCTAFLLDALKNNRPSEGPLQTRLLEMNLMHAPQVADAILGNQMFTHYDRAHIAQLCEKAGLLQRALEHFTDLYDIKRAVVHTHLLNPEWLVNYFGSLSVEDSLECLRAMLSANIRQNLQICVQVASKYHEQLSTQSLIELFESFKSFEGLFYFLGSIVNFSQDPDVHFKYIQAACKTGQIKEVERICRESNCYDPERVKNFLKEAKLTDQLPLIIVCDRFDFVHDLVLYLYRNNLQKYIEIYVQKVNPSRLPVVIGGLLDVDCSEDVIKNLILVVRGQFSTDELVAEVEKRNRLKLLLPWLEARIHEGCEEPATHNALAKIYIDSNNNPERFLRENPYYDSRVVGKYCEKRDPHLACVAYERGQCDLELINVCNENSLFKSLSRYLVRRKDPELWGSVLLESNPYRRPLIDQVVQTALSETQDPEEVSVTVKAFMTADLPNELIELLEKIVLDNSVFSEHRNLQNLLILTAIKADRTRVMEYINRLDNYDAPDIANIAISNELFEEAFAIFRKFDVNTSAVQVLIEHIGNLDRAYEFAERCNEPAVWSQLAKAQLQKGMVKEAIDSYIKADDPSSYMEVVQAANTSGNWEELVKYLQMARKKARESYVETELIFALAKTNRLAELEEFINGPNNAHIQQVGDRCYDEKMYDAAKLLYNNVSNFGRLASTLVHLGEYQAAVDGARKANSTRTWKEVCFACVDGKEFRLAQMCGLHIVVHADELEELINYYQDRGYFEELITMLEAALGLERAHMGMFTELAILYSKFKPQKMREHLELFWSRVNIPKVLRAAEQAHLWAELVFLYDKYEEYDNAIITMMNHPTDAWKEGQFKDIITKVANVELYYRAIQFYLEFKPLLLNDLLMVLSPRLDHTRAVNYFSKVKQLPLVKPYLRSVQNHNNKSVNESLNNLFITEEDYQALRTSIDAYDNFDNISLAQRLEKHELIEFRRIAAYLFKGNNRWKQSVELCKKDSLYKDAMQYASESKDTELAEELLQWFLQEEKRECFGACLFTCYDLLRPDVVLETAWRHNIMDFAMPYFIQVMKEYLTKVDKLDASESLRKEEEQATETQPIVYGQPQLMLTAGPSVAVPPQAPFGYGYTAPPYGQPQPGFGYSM

The IC50 is the concentration at which inhibition is half-maximal. Regarding `C/C1=C/C2=C(C(=O)[C@H](C)C2)C(=O)[C@@H](C)C[C@@H]2[C@H](CC1)[C@@]2(C)CO[C@@H]1O[C@H](CO)[C@@H](O)[C@H](O)[C@H]1O`, the outcome in assay [1], in assay [3] and in assay [4] was Active. Moreover, the figures for the IC50 in assay [2] and in assay [5] were 25 µM and 32 µM, respectively.
For the molecule `O=C1N=C(NS(=O)(=O)c2cccc3ccccc23)S/C1=C/c1ccc(Br)cc1`, the inhibition entry in assay [6] was “Active”.
